Series [1] deals with SARS Coronavirus 2 recombinant with NanoLuc (SARS-CoV2-NLuc) in A549-hACE2 cells. Nature of the series: organism not typed. The class given is cell-based. The following applies: 48 h; read-out: SARS-CoV2 EC50.
Series [2] deals with Caco-2 cells (clone C2BBe1). In words: CACO-2 permeability. It counts as in vitro ADME. Set-up: unit not given here. Conditions: for DM Caco2 A to B: apical to basolateral, donor pH 6.5, receiver pH 7.4; for DM Caco2 B to A: basolateral to apical. The protocol: Pre-plated Caco-2 cells (clone C2BBel) were obtained from Sigma-Aldrich, Inc. (Atlanta, GA). Cell monolayers were grown to confluence on collagen-coated, microporous, polycarbonate membranes in 24-well transwell plates for 21 days. The permeability assay buffer in donor wells was Hanks' balanced salt solution (HBSS) containing 10 mM HEPES and 15 mM glucose at a pH of 6.5 containing 200 μM BNPP. The receiver wells used HBSS buffer containing 10 mM HEPES and 15 mM glucose at a pH of 7.4 and supplemented with 1°% BSA. After an initial equilibration with transport buffer, TEER values were read to test membrane integrity. The experiment was started by the addition of buffers containing test compounds, 200 μl and 1000 μl in the apical and basolateral chamber, respectively. At 0- and 2-hour post dose, 10 μL was sampled from donor compartment and was immediately diluted in 190 μL of 20% methanol. At 1 and 2 hours post dose, 100 μl of solution was taken from the receiver compartments and was immediately diluted in 100 μl of 20% methanol. Removed buffer was replaced with fresh buffer and a correction was applied to all calculations for the removed material. Each compound was tested in 2 separate replicate wells for each condition. All samples were then extracted with 400 μl 100% acetonitrile with internal standard to precipitate protein. Cells were dosed on the apical or basolateral side to determine forward (A to B) and reverse (B to A) permeability. To test for non-specific binding and compound instability, the total amount of drug was quantitated at the end of the experiment and compared to the material present in the original dosing solution as a percent recovery. […] Samples were analyzed by LC-MS/MS.
Background: Passage across Caco-2 layers is used to estimate intestinal permeability.

Series [3] in a line: CC50 MT4 cytotoxicity (Cell-Titer Glo). Conditions: human. The class given is cell-based. The protocol: Cytotoxicity of the compounds was determined in uninfected cells using the cell viability reagent in a similar fashion as described before for other cell types (Cihlar et al., Antimicrob Agents Chemother. 2008, 52(2):655-65). HEp-2 (1.5×10^3 cells/well) and MT-4 (2×10^3 cells/well) cells were plated in 384-well plates and incubated with the appropriate medium containing 3-fold serially diluted compound ranging from 15 nM to 100,000 nM. Cells were cultured for 4-5 days at 37° C. Following the incubation, the cells were allowed to equilibrate to 25° C., and cell viability was determined by adding Cell-Titer Glo viability reagent. The mixture was incubated for 10 min, and the luminescence signal was quantified using an Envision plate reader. Untreated cell and cells treated at 2 μM puromycin (Sigma, St. Louis, MO) serve as 100% and 0% cell viability control, respectively. The percent of cell viability was calculated for each tested compound concentration relative to the 0% and 100% controls and the CCso value was determined by non-linear regression as a compound concentration reducing the cell viability by 50%.

In series [4] the test system is Respiratory syncytial virus recombinant with luciferase (RSV-Luc5) in Normal Human Bronchial Epithelial (NHBE) cells. In words: microbe, parasite or virus in culture. Conditions: 72 h, read-out: RSV NHBE EC50. The class given is cell-based.
Series [5] is described as follows: GI S9 stability - no PMSF. It counts as in vitro ADME. Conditions: pH 7.4; human intestinal S9, PMSF-free; read-out: GIS9-HUMAN-NoPMSF T1/2. The protocol:
Duplicate aliquots of test compound or positive control substrate (GS-7340) were added to S9 stock diluted with 100 mM phosphate buffered saline, pH 7.4, to obtain a protein concentration of 1.0 mg/mL. The S9 metabolic reactions were initiated by the addition of the substrates to the S9 reaction mixture to a final concentration of 2 μM. At 0, 10, 20, 30, 60 and 120 min, […] aliquots of the reaction mixture were transferred to plates containing […] of IS/Q solution. After quenching, the plates were centrifuged at 3000 g for 30 minutes, and 150 μL aliquots of each supernatant were diluted with 150 μL water. Aliquots ([…]) of the diluted supernatant were analyzed on a Thermo Q-Exactive mass spectrometer as described below. GI S9 Stability—No phenylmethylsulfonyl fluoride (PMSF): Similar to the procedure described above, test compounds were incubated at 2 μM with 1 mg/mL PMSF-free Intestinal S9 fractions. Samples are removed at 6 time points over the course of a 120 min experiment and the parent compound disappreance and reference compound A formation is determined by mass spectrometry.
Example K: Liquid Chromatography/Mass Spectroscopy Methods for S9 and Plasma Stability
Quantification of test compounds, Reference Compound A (S9 stability assay nucleoside metabolite), and controls was performed by analyte/internal standard peak area ratio (PAR) values measured on a Thermo Q-Exactive mass spectrometer coupled to a Dionex UltiMate 3000 HPLC with a Leap Technologies HTC PAL autosampler. The column used for analysis of test compounds and Reference Compound A was a Waters Acquity BEH C18 ([…] particle size, 2.1′50 mm). The column used for control (GS-7340) was a Thermo Hypersil GOLD ([…] particle size, 2.1′50 mm). Mobile phase A consisted of 0.1% (v/v) formic acid in water. Mobile phase B consisted of 0.1% (v/v) formic acid in acetonitrile. Elution of analytes was achieved by a series of linear gradients of acetonitrile in water containing 0.1°(v/v) formic acid. The mass spectrometer was calibrated on a weekly basis and mass tolerance of 5 ppm was used.

A short description of another series: Plasma stability. It counts as in vitro ADME. Set-up: unit not given here. Conditions: 37° C., 2 μM substrate. The protocol:
At 0.05, 0.5, 1, 2, 3 and 4 hr, […] aliquots of the reaction mixture were transferred to plates containing […] of IS/Q quenching solution. After quenching, the plates were centrifuged at 3000 g for 30 minutes, and 150 μL supernatant was diluted with 150 μL water. Aliquots ([…]) of the diluted supernatant were analyzed on a Thermo Q-Exactive mass spectrometer as described below.
Mobile phase A consisted of 0.1% (v/v) formic acid in water. Mobile phase B consisted of 0.1% (v/v) formic acid in acetonitrile. Elution of analytes was achieved by a series of linear gradients of acetonitrile in water containing 0.1°(v/v) formic acid. The mass spectrometer was calibrated on a weekly basis and mass tolerance of 5 ppm was used.

Consider nine molecules from patent US12448383B2, “Compounds and methods for treatment of viral infections” (priority 2022, dated 2025).

In the case of `CC(C)OC(=O)OC[C@H]1O[C@@](C#N)(c2ccc3c(NC(=O)OC(C)(C)C)ncnn23)[C@H](OC(=O)OC(C)C)[C@@H]1OC(=O)OC(C)C` [Compound 80, tert-butyl (7-((2R,3R,4R,5R)-2-cyano-3,4-bis((isopropoxycarbonyl)oxy)-5-(((isopropoxycarbonyl)oxy)methyl)tetrahydrofuran-2-yl)pyrrolo[2,1-f][1,2,4]triazin-4-yl)carbamate], the EC50 (usually the concentration that produces a half-maximal response) in series [1] was over 50 µM; in series [4], 2.04 µM. Further, the “DM Caco2 A to B” value in series [2] is on record as 1.35. In series [2], the “DM Caco2 B to A” value was 0.95. Moreover, the CC50 (commonly the concentration giving 50% cytotoxicity) in series [3] is over 50 µM. In addition, the half-life at 2 µM in series [5] was 50.8 s. Also, the “STA Human Plasma 37” value in “Plasma stability” is listed as 604.23.
In the case of `CC(C)[C@@H]1CC[C@@H](C)C[C@H]1OC(=O)OC[C@H]1O[C@@](C#N)(c2ccc3c(N)ncnn23)[C@H](O)[C@@H]1O` [Compound 83, ((2R,3S,4R,5R)-5-(4-aminopyrrolo[2,1-f][1,2,4]triazin-7-yl)-5-cyano-3,4-dihydroxytetrahydrofuran-2-yl)methyl ((1R,2S,5R)-2-isopropyl-5-methylcyclohexyl) carbonate], in series [1], the EC50 is 24.5 µM. For the same molecule, in series [2], the “DM Caco2 A to B” value was determined as 5.3 and the “DM Caco2 B to A” value amounted to 25.42. In series [3], the cytotoxic concentration (CC50) is 21 µM. Besides, in series [4], the EC50 was 2.32 µM. Moreover, the half-life at 2 µM in series [5] came out at 726 s. Besides, the “STA Human Plasma 37” value in the series “Plasma stability” is on record as 1584.
With `C=CCOC(=O)OC[C@H]1O[C@@](C#N)(c2ccc3c(N)ncnn23)[C@H](O)[C@@H]1O` [Compound 64, Ally (((2R,3S,4R,5R)-5-(4-aminopyrrolo[2,1-f][1,2,4]triazin-7-yl)-5-cyano-3,4-dihydroxytetrahydrofuran-2-yl)methyl) carbonate], in series [1], the EC50 stood at 4.21 µM. Besides, in series [2], the “DM Caco2 A to B” value turned out to be 0.39 and the “DM Caco2 B to A” value is 4.6. In series [3], this molecule yielded a CC50 of over 50 µM. Moreover, the EC50 in series [4] was 2.66 µM. Moreover, in series [5], the half-life at 2 µM is 59.6 s. Besides, in “Plasma stability”, the “STA Human Plasma 37” value is 3.
Regarding `CCOC(=O)OC[C@H]1O[C@@](C#N)(c2ccc3c(N)ncnn23)[C@@H]2OC(CC)O[C@@H]21` (stereo partly drawn) [Compound 132, ((3aR,4R,6R,6aR)-6-(4-aminopyrrolo[2,1-f][1,2,4]triazin-7-yl)-6-cyano-2-ethyltetrahydrofuro[3,4-d][1,3]dioxol-4-yl)methyl ethyl carbonate], the EC50 in series [1] was over 50 µM. Also, in series [2], the “DM Caco2 A to B” value is given as 12.34 and the “DM Caco2 B to A” value came to 13.86. For the same molecule, the CC50 in series [3] was over 50 µM. Moreover, the EC50 in series [4] is over 50 µM. Further, the half-life at 2 µM in series [5] worked out at 37.4 s. The “STA Human Plasma 37” value in the series “Plasma stability” is 12.304.
For the molecule `CC(C)OC(=O)OC[C@H]1O[C@@](C#N)(c2ccc3c(N)ncnn23)[C@H](O)[C@@H]1OC(=O)CCCCCCC(=O)O` [Compound 130, 8-(((2R,3S,4R,5R)-5-(4-aminopyrrolo[2,1-f][1,2,4]triazin-7-yl)-5-cyano-4-hydroxy-2-(((isopropoxycarbonyl)oxy)methyl)tetrahydrofuran-3-yl)oxy)-8-oxooctanoic acid], the half-maximal effective concentration (EC50) in series [1] was 9.04 µM; in series [4], 2.96 µM. The “DM Caco2 A to B” value in series [2] was 0.12. Moreover, in series [2], the “DM Caco2 B to A” value was 2.54. Besides, the CC50 in series [3] was over 50 µM. The half-life at 2 µM in series [5] was determined as 95.2 s. In the series “Plasma stability”, the “STA Human Plasma 37” value amounted to 409.28.
Turning to `CCOC(=O)OC[C@H]1O[C@@](C#N)(c2ccc3c(NC(=O)OCc4ccccc4)ncnn23)[C@H](O)[C@@H]1O` [Compound 131, benzyl (7-((2R,3R,4S,5R)-2-cyano-5-(((ethoxycarbonyl)oxy)methyl)-3,4-dihydroxytetrahydrofuran-2-yl)pyrrolo[2,1-f][1,2,4]triazin-4-yl)carbamate], the EC50 in series [1] was 8.26 µM. In addition, in series [2], the “DM Caco2 A to B” value stood at 2.01 and the “DM Caco2 B to A” value came out at 15.52. The CC50 in series [3] is over 50 µM. In addition, the EC50 in series [4] was 4.79 µM. Moreover, the half-life at 2 µM in series [5] worked out at 158 s. Moreover, in the series “Plasma stability”, the “STA Human Plasma 37” value is listed as 150.92.
Take `CC1(OC(=O)OC[C@H]2O[C@@](C#N)(c3ccc4c(N)ncnn34)[C@H](O)[C@@H]2O)CCCCCC1` [Compound 55, ((2R,3S,4R,5R)-5-(4-aminopyrrolo[2,1-f][1,2,4]triazin-7-yl)-5-cyano-3,4-dihydroxytetrahydrofuran-2-yl)methyl (1-methylcycloheptyl) carbonate]: the EC50 in series [1] stood at 2.9 µM. Moreover, in series [2], the “DM Caco2 A to B” value is on record as 0.38 and the “DM Caco2 B to A” value was 1.89. This molecule displayed a CC50 in series [3] of over 50 µM. In series [4], the EC50 stood at 1.34 µM. For the same molecule, in series [5], the half-life at 2 µM amounted to 35.8 s. In the series “Plasma stability”, the “STA Human Plasma 37” value was determined as 75.665.
`N#C[C@@]1(c2ccc3c(N)ncnn23)O[C@H](COC(=O)OC2CCC2)[C@@H](O)[C@H]1O` [Compound 37, ((2R,3S,4R,5R)-5-(4-aminopyrrolo[2,1-f][1,2,4]triazin-7-yl)-5-cyano-3,4-dihydroxytetrahydrofuran-2-yl)methyl cyclobutyl carbonate]: in series [1], the EC50 stood at 3.15 µM. Moreover, in series [2], the “DM Caco2 A to B” value came out at 0.5 and the “DM Caco2 B to A” value stood at 7.54. Besides, the CC50 in series [3] was over 50 µM. Also, the EC50 in series [4] was 4.75 µM. Also, in series [5], the half-life at 2 µM turned out to be 35.3 s. For the same molecule, in the series “Plasma stability”, the “STA Human Plasma 37” value is recorded as 53.
Take `CC(C)C(C)(C)OC(=O)OC[C@H]1O[C@@](C#N)(c2ccc3c(N)ncnn23)[C@H](O)[C@@H]1O` [Compound 68, ((2R,3S,4R,5R)-5-(4-aminopyrrolo[2,1-f][1,2,4]triazin-7-yl)-5-cyano-3,4-dihydroxytetrahydrofuran-2-yl)methyl (2,3-dimethylbutan-2-yl) carbonate]: the EC50 in series [1] was 3.13 µM. In series [2], the “DM Caco2 A to B” value turned out to be 0.98 and the “DM Caco2 B to A” value is 7.09. Moreover, the CC50 in series [3] was over 50 µM. Moreover, the EC50 in series [4] stood at 1.3 µM. In addition, the half-life at 2 µM in series [5] amounted to 2760 s. Further, the “STA Human Plasma 37” value in “Plasma stability” was 266.43.
